Measurements taken from patent US6812365B2, “Disulfone reagents and methods of preparing and using same” (The Arizona Disease Control Research Commission, priority 1999, dated 2004).

Molecular target: T1, HIV integrase (HIV-IN) (Human immunodeficiency virus type 1 group M subtype B, UniProt P04585)
T1 construct: employs a purified recombinant integrase
Experiment: in vitro HIV integrase inhibition assay (3′-processing and DNA strand transfer, purified recombinant integrase, 21-mer duplex oligonucleotide substrate)
Format: biochemical
Settings: cell-free assay, 50% reduction in enzymatic activity; read-out: IC50 values against HIV-IN
Source text: Generally, a particular compound's HIV integrase inhibitory potency can be measured by observing the effects of that compound on the integrase enzyme's catalytic activity. HIV integrase has two catalytic functions: (1) 3′-processing, which removes a dinucleotide unit from the 3′-ends of viral DNA; and (2) DNA strand transfer, which […]. These two catalytic steps can be measured in an in vitro assay which employs a purified recombinant integrase and a 21-mer duplex oligonucleotide substrate corresponding to the U5 region of the HIV long terminal repeat (LTR) sequence. This assay permits simultaneous measurement of inhibition constants for both 3′-processing and DNA strand transfer. Inhibitory concentrations (i.e., IC50 values) are determined based on an observed 50% reduction in enzymatic activity in cell-free assays. (See e.g., Zhao H., Neamati N., Mazumder A., Sunder S., Pommier Y., ad Burke T. “Arylamide Inhibitors of HIV-1 Integrase” J. Med. Chem. 1997, 40, 1186-1194).
Compound 76 (an acetylated derivative of Compound 80), Compound 78 (a symmetrical, hydroxylated derivative of Compound 80), and Compound 82 (an acetylated and methylated derivative of Compound 80) have been prepared in accordance with the various aspects of the present invention and have been tested in accordance with the above-described known method of testing HIV-IN inhibition.

| SMILES | IC50 |
| --- | --- |
| CC(=O)Oc1ccc(C=CS(=O)(=O)CS(=O)(=O)C=Cc2ccc(OC(C)=O)c(OC(C)=O)c2)cc1OC(C)=O [Compound 76] | 73 to 77 µM |
| O=S(=O)(C=Cc1ccc(O)c(O)c1)CS(=O)(=O)C=Cc1ccc(O)c(O)c1 [Compound 78] | 4 to 6 µM |
| COc1cc(C=CS(=O)(=O)CS(=O)(=O)C=Cc2cc(OC)c(OC(C)=O)c(OC(C)=O)c2)cc(OC(C)=O)c1OC(C)=O [Compound 82] | 4 µM |
